Source: ChEMBL document CHEMBL4004864, “Synthetic analogs of rhamnolipids modulate structured biofilms formed by rhamnolipid-nonproducing mutant of Pseudomonas aeruginosa” (Bioorg Med Chem, 2017)
Activity calls are given as the source filed them. No cut-off for these calls is given here.

Tests used:
[1] = tested on: Pseudomonas aeruginosa; experiment: Inhibition of biofilm formation in eGFP-fused Pseudomonas aeruginosa PW6886 harboring rhlA-E08::ISphoA/hah mutant at 340 uM by COMSTAT based quantification relative to control; type: functional
[2] = tested on: Pseudomonas aeruginosa; experiment: Inhibition of biofilm formation in eGFP-fused Pseudomonas aeruginosa PW6886 harboring rhlA-E08::ISphoA/hah mutant at 340 uM after 24 hrs under shaking condition by confocal laser scanning microscopy; type: functional
[3] = tested on: Pseudomonas aeruginosa; experiment: Induction of biofilm formation in Pseudomonas aeruginosa PW6886 harboring rhlA-E08::ISphoA/hah mutant at 20 to 170 uM after 24 hrs under non-shaking condition by crystal-violet staining based assay; type: functional
[4] = tested on: Pseudomonas aeruginosa; experiment: Inhibition of biofilm formation in eGFP-fused Pseudomonas aeruginosa PW6886 harboring rhlA-E08::ISphoA/hah mutant at 340 uM after 48 hrs under shaking condition by confocal laser scanning microscopy; type: functional
[5] = tested on: Pseudomonas aeruginosa; experiment: Induction of biofilm formation in eGFP-fused Pseudomonas aeruginosa PW6886 harboring rhlA-E08::ISphoA/hah mutant at 20 uM after 48 hrs under shaking condition by confocal laser scanning microscopy; type: functional
[6] = tested on: Pseudomonas aeruginosa; experiment: (§1) Antibiofilm activity against Pseudomonas aeruginosa PW6886 harboring rhlA-E08::ISphoA/hah mutant preformed biofilms assessed as reduction in biofilm bacterial count at 340 uM preincubated for 24 hrs under non-shaking condition followed by second incubation for 1 hr after compound washout and subsequent compound addition and measured after 1 hr incubation under non-shaking condition by crystal-violet staining based assay; type: functional
[7] = tested on: Pseudomonas aeruginosa; experiment: Induction of biofilm formation in eGFP-fused Pseudomonas aeruginosa PW6886 harboring rhlA-E08::ISphoA/hah mutant at 20 to 40 uM by COMSTAT based quantification relative to control; type: functional
[8] = tested on: Pseudomonas aeruginosa; experiment: as §1, with “20 to 40” for “340”; type: functional
[9] = tested on: Pseudomonas aeruginosa; experiment: Induction of biofilm formation in Pseudomonas aeruginosa PW6886 harboring rhlA-E08::ISphoA/hah mutant expressing EGFP at 40 uM after 24 hrs under non-shaking condition by confocal laser scanning microscopy; type: functional
[10] = tested on: Pseudomonas aeruginosa; experiment: Induction of structured biofilm formation in eGFP-fused Pseudomonas aeruginosa PW6886 harboring rhlA-E08::ISphoA/hah mutant at 20 uM after 24 hrs under shaking condition by confocal laser scanning microscopy; type: functional
[11] = tested on: Pseudomonas aeruginosa; experiment: Inhibition of biofilm formation in Pseudomonas aeruginosa PW6886 harboring rhlA-E08::ISphoA/hah mutant at 340 uM under non-shaking condition after 24 hrs by crystal-violet staining based assay; type: functional
[12] = tested on: Pseudomonas aeruginosa; experiment: as §1, with “count at 20 to 340 uM” for “count at 340 uM”; type: functional
[13] = tested on: Pseudomonas aeruginosa; experiment: Induction of swarming motility of wild-type Pseudomonas aeruginosa PAO1 at 5 to 100 uM after 24 hrs; type: functional
[14] = tested on: Pseudomonas aeruginosa; experiment: Effect on biofilm formation in Pseudomonas aeruginosa PW6886 harboring rhlA-E08::ISphoA/hah mutant at 10 to 340 uM after 24 hrs under non-shaking condition by crystal-violet staining based assay; type: functional
[15] = tested on: Pseudomonas aeruginosa; experiment: Induction of biofilm formation in Pseudomonas aeruginosa PW6886 harboring rhlA-E08::ISphoA/hah mutant expressing EGFP at 20 to 340 uM after 48 hrs under shaking condition by confocal laser scanning microscopy; type: functional
[16] = tested on: Pseudomonas aeruginosa; experiment: Inhibition of biofilm formation in Pseudomonas aeruginosa PW6886 harboring rhlA-E08::ISphoA/hah mutant expressing EGFP at 20 to 340 uM after 48 hrs under shaking condition by confocal laser scanning microscopy; type: functional
[17] = tested on: Pseudomonas aeruginosa; experiment: Induction of swarming motility of Pseudomonas aeruginosa PW6886 harboring rhlA-E08::ISphoA/hah mutant at 5 to 100 uM after 24 hrs; type: functional
[18] = tested on: Pseudomonas aeruginosa; experiment: Bactericidal activity against Pseudomonas aeruginosa PW6886 harboring rhlA-E08::ISphoA/hah mutant at 20 to 340 uM under shaking condition
[19] = tested on: Pseudomonas aeruginosa; experiment: Induction of swarming motility of wild-type Pseudomonas aeruginosa PAO1 at 50 uM after 24 hrs; type: functional
[20] = tested on: Pseudomonas aeruginosa; experiment: Induction of tendril formation in Pseudomonas aeruginosa PAO1 at > 85 uM after 24 hrs; type: functional
[21] = tested on: Pseudomonas aeruginosa; experiment: Induction of tendril formation in Pseudomonas aeruginosa PW6886 harboring rhlA-E08::ISphoA/hah mutant at 5 to 100 uM after 24 hrs; type: functional
[22] = tested on: Pseudomonas aeruginosa; experiment: Induction of biofilm formation in Pseudomonas aeruginosa PW6886 harboring rhlA-E08::ISphoA/hah mutant expressing EGFP assessed as reduction in exopolymers covering the bottom of well at 20 to 85 uM after 24 hrs under shaking condition by confocal laser scanning microscopy; type: functional

SMILES | inhibition at 340 µM [1] [%] | inhibition [2] | Activity [3] | inhibition [4] | Activity [5] | Activity [6] | Activity [7] | Activity [8] | Activity [9] | Activity [10] | inhibition [11] | Activity [12] | Activity [13] | Activity [14] | Activity [15] | inhibition [16] | Activity [17] | Activity [18] | further results
CC(C)CCCC(C)CCCC(C)CCO[C@@H]1O[C@H](CO)[C@@H](O[C@@H]2O[C@H](CO)[C@@H](O)[C@H](O)[C@H]2O)[C@H](O)[C@H]1O (some centres not stated) | 80 | Active | Active | Active | Active | Active | 10 - 60% | inactive | Active | Active | Active | – | – | – | – | – | – | – | –
CCCOCCCCCCCCO[C@@H]1O[C@H](CO)[C@@H](O[C@H]2O[C@H](CO)[C@@H](O)[C@H](O)[C@H]2O)[C@H](O)[C@H]1O | – | – | – | – | – | – | – | – | – | – | – | inactive | inactive | inactive | inactive | inactive | inactive | – | –
CCCCCCOCCCCCO[C@@H]1O[C@H](CO)[C@@H](O[C@H]2O[C@H](CO)[C@@H](O)[C@H](O)[C@H]2O)[C@H](O)[C@H]1O | – | – | – | – | – | – | – | – | – | – | – | inactive | inactive | inactive | inactive | inactive | inactive | Non-Toxic | –
CCCCCCCCCCCCO[C@@H]1O[C@H](CO)[C@@H](O[C@H]2O[C@H](CO)[C@@H](O)[C@H](O)[C@H]2O)[C@H](O)[C@H]1O | 80 | Active | Active | inactive | inactive | Active | 10 - 60% | inactive | – | Active | – | – | – | – | – | – | Active | Non-Toxic | Activity [19]: Active; Activity [20]: Active; Activity [21]: Active
CC(C)CCCC(C)CCCC(C)CCO[C@@H]1O[C@H](CO)[C@@H](O[C@H]2O[C@H](CO)[C@@H](O)[C@H](O)[C@H]2O)[C@H](O)[C@H]1O (some centres not stated) | 80 | Active | Active | Active | Active | Active | 10 - 60% | inactive | Active | Active | Active | – | – | – | – | – | – | Non-Toxic | Activity [22]: Active
O=C(c1ccccc1)c1ccc(COCCCCCCCCCCO[C@@H]2O[C@H](CO)[C@@H](O[C@H]3O[C@H](CO)[C@@H](O)[C@H](O)[C@H]3O)[C@H](O)[C@H]2O)cc1 | 80 | Active | Active | Active | Active | Active | 10 - 60% | inactive | Active | Active | – | – | – | – | – | – | – | Non-Toxic | –
